How the values were obtained:
[1] = Dog single dose pharmacokinetics; assay type: in vivo, beagle dogs; details: male, beagle, plasma, IV; for Vd: read-out: Vss; for half-life: read-out: t½ (converted)
Protocol: (§1) Non-naïve male beagle dogs (8 months-3 years of age, body weight 8-13 kg) were used in this study. All animals for IV administration had free access to food and water; all animals for PO were fasted overnight prior to dosing and were fed approximately 6 hours after dosing. For the animals in PO group, pentagastrin (6.0 μg/kg, i.m.) was administrated 20 minutes before dosing PO formulation and 1.5 hours after the first pentagastrin dosing. The dosing volume was 0.024 mL/kg, the concentration was 250 μg/mL in DMSO/1 N NaOH/PBS. 10 mL of 0.001 N HCl was used to wash the gavage catheter for each animal. The IV dose solution was prepared in 10% DMA/50% PG/40% HPβCD solution (40% w/v aqueous HPβCD) at a concentration of 1.0 mg/mL. The oral dose suspension was prepared by suspending the compound in 0.5% HPMC/0.1% Tween 80 in distilled water at a concentration of 0.2 mg/mL. Concentrations of IV and PO doses were measured at the end of the study. PK parameters were calculated using the nominal dose values if the measured values were within 20% of the nominal values. Blood samples were collected by venipuncture of peripheral veins except the dosing vein at pre-dose, 5 15, 30 min, 1, 2, 4, 6, 8, 24 and 48 h post-dose. Blood samples were centrifuged and resultant plasma was frozen for bioanalysis. Plasma samples were stored at −80° C. before analysis. Plasma samples were analyzed for compound concentrations using the LC/MS/MS method. Briefly, a 50 μL aliquot of each plasma sample was mixed with 100 μL of acetonitrile that contained an internal standard. The mixture was vortexed and centrifuged. Ten (10) μL of the resulting solution was injected onto a reverse-phase C18 column and the resultant peaks detected on a LC/MS/MS equipped with a turbo ionspray ionization source. Sample concentrations below the limit of quantification (BLQ) were treated as zero for PK calculations. PK parameters were estimated from individual animals using noncompartmental analysis of the concentration-time data (Phoenix WinNonLin software, version 64; Pharsight, Mountain View, CA). The elimination rate constant (k) was calculated as the absolute value of the slope of the linear regression of logarithm (log) of the concentration versus time for the last three data points of the concentration-time profiles. Apparent elimination half-life (t1/2) values were calculated as ln(2)/k. Area under the concentration-time curve (AUC) values were estimated using linear trapezoidal method. AUCt values were calculated from the dosing time to the last measurable concentration. AUC∞ values were calculated as the sum of the corresponding AUCt and the ratio of the last detectable concentration divided by k. Plasma clearance (CL) was calculated from Dose/AUC∞. Mean resident time extrapolated to infinity (MRT∞) was estimated by moment analysis. Vss was calculated from MRT∞×CL. Maximum concentration (Cmax) and time to reach Cmax (tmax) were recorded as observed. As this was a cross-over study, bioavailability was calculated dAUC∞,po/dAUC∞,iv×100% where dAUC was the dose normalized AUC value from the same animal given IV and PO dose. Data for compounds tested are provided in Table D. Compounds tested were prepared in accordance with the synthetic procedures described herein.

[2] = Monkey single dose pharmacokinetics; assay type: in vivo; details: male, plasma, cynomolgus monkey, IV; for Vd: read-out: Vss; for half-life: read-out: t½ (converted)
Protocol: as §1, with “Non-naïve Male Cynomolgus Monkey (2-5” for “Non-naïve male beagle dogs (8 months-3”, “weight 2-5” for “weight 8-13”, “kg)” for “kg) were”, “this study were obtained from Topgene Biotechnology.” for “this study.”, “dosing.” for “dosing. For the animals in PO group, pentagastrin (6.0 μg/kg, i.m.) was administrated 20 minutes before dosing PO formulation and 1.5 hours after the first pentagastrin dosing. The dosing volume was 0.024 mL/kg, the concentration was 250 μg/mL in DMSO/1 N NaOH/PBS. 10 mL of 0.001 N HCl was used to wash the gavage catheter for each animal.”, “Table E.” for “Table D.”

[3] = Projected single-dose CL and Vss values in humans (allometric scaling of mouse, rat, dog, monkey IV PK); details: human, projected by allometric scaling from single-dose IV PK
Protocol: Allometric scaling for the prediction of human Clearance and Volume of Distribution was based on interspecies simple allometric scaling of mouse, rat, dog, and cynomolgus monkey intravenous pharmacokinetic parameters (Boxenbaum, J Pharmacokinet Biopharm 10:201-27, 1982). Prediction of human CL was performed by extrapolating pre-clinical species' plasma intravenous clearance. The ‘rule of exponents’ (Mahmood & Balian, Life Sci 59:579-85, 1996) was examined in this prediction, where it has been proposed that, when the exponent of simple allometry lies between […] and 0.99, a correction factor based on Maximum Life Span (MLP) of this species can be applied and, when the exponent of simple allometry is greater than 1.0, a correction factor based on Brain Weight (BrW) can be applied, or a protein binding correction can be applied when available. In a similar manner, simple allometric scaling was employed to predict human Volume of Distribution. This method has been used successfully for varied drugs (Ward & Smith, Drug Metab Dispos 32:612-19, 2004; McGinnity et al., Curr Drug Metab 8:463-79, 2007).

Structure (SMILES): CC(C)N1CC(=O)N(Cc2ccc(C(F)(F)F)cc2)C2(CN(c3cccnn3)C2)C1=O [Compound 13, 8-isopropyl-2-(pyridazin-3-yl)-5-(4-(trifluoromethyl)benzyl)-2,5,8-triazaspiro[3.5]nonane-6,9-dione]
- clearance [1]: 7.45 mL/min/kg
- Vd [1]: 2.85 L/kg
- half-life [1]: 6.44 h
- clearance [2]: 25.8 mL/min/kg
- Vd [2]: 3.98 L/kg
- half-life [2]: 2.05 h
- Projected CL [3]: 4.66 mL/min/kg
- Projected Vss [3]: 3.43 L/kg
- Projected t½ [3]: 8.51 h

Structure (SMILES): C[C@H]1CC[C@H](N2CC(=O)N(Cc3ccc(Cl)cc3)C3(CN(C(N)=O)C3)C2=O)CC1 [Compound 18, 5-(4-chlorobenzyl)-8-((1r,4r)-4-methylcyclohexyl)-6,9-dioxo-2,5,8-triazaspiro[3.5]nonane-2-carboxamide]
- clearance [1]: 18.8 mL/min/kg
- Vd [1]: 5.73 L/kg
- half-life [1]: 5.8 h
- clearance [2]: 7.91 mL/min/kg
- Vd [2]: 6.08 L/kg
- half-life [2]: 10.9 h
- Projected CL [3]: 3.3 mL/min/kg
- Projected Vss [3]: 7.1 L/kg
- Projected t½ [3]: 25 h

Structure (SMILES): C[C@H]1CC[C@H](N2CC(=O)N(Cc3ccc(F)c(F)c3)C3(CN(C=O)C3)C2=O)CC1 [Compound 4, 5-(3,4-difluorobenzyl)-8-((1r,4r)-4-methylcyclohexyl)-6,9-dioxo-2,5,8-triazaspiro[3.5]nonane-2-carbaldehyde]
- half-life [1]: 9.54 h
- Projected CL [3]: 1.84 mL/min/kg
- Projected Vss [3]: 4.51 L/kg
- Projected t½ [3]: 28.3 h
